Laboratory results taken from patent EP0357092B1, “Preparation of diacetoxybenzylidene diacetates” (KUREHA KAGAKU KOGYO KABUSHIKI KAISHA, priority 1983, dated 1985).
Where two headings read alike, the source gives them in different places.

Tests used:
[1] = Acute mammalian toxicity (oral LD50); conditions: mouse, in vivo
Method: After dispersing present substance No.1 in an aqueous 0.2 % solution of carboxymethylcellulose, the aqueous dispersion was orally administered to each of male Jcl-ICR mice. As a result, LD₅₀ (acute, oral) of the tested substance was larger than 4,000 mg/kg.

[2] = test system: proliferation of granuloma; assay: Suppression of proliferation of granuloma, filter paper implant method of Fujimura; assay type: in vivo, male Donryu rats; conditions: once a day for 10 days, rats, dried granuloma weighed after 11 days
Method: While using groups of male Donryu rats in the fifth week after birth (5 rats per group), the activity of present substance No.1 in suppressing the proliferation of granuloma was tested by the method of Fujimura (refer to OYOYAKURI (Pharmacometrics), 19 (3), 329, 1980).
After soaking sheets of filter paper of 13 mm in diameter and 28 mg in weight into an aqueous 2% solution of carboxymethylcellulose containing both dihydroxystreptomycin and penicillin, each of 10⁶ unit at the respective concentration of 0.1 mg/ml, each of the thus treated sheets was buried subcutaneously into the back of each rat under anaesthesia by ether. […] After 11 days of the treatment, granuloma formed in the rat was removed, dried for 24 hours at 70°C and weighed.

[3] = test system: migration of polymorphonuclear leukocytes (PMN) to the site of inflammation; assay: Suppression of migration of polymorphonuclear leukocytes, carboxymethylcellulose-pouch method; assay type: in vivo, male Donryu rats; conditions: rats, PMN counted 6 hours after injection into pouch
Method: While using groups of male Donryu rats (six rats per group) and following the carboxymethylcellulose-pouch method (refer to Ishikawa et al. […] ZASSHI (Journal of the Pharmaceutical Society of Japan), 88, 1472, 1968), the extent of inhibition of migration of polymorphonuclear leukocytes to the site of inflammation by present substance No.1 was examined. The specimen (present substance No.1) was dispersed in an aqueous 0.2 % solution of carboxymethylcellulose and the dispersion was administered to each rat at a predetermined dose rate, and only the aqueous 0.2 % solution of carboxymethylcellulose was administered to each rat of control group. The test was carried out by injecting the aqueous 0.2 % solution of carboxymethyl-cellulose into the pouch formed in the body of the rat and after 6 hours of the injection, the number of polymorphonuclear leukocytes in the exudate into the pouch was counted. […]

Compound	LD50 ([1]; male, Jcl-ICR, po) [mg/kg]	Granuloma Rate of Suppression (%) ([2]; dose rate 5 mg/kg/day oral)	Granuloma Rate of Suppression (%) ([2]; dose rate 10 mg/kg/day oral)	Granuloma Rate of Suppression (%) ([2]; dose rate 50 mg/kg/day oral)	Rate of suppression of migration of PMN (%) ([3]; dose rate 5 mg/kg)	Rate of suppression of migration of PMN (%) ([3]; dose rate 10 mg/kg)	Rate of suppression of migration of PMN (%) ([3]; dose rate 50 mg/kg)	LD50 ([1]; oral, male Jcl-ICR mice, dispersed in aqueous 0.2 % carboxymethylcellulose, read-out: LD₅₀ (acute, oral)) [mg/kg]	Granuloma Rate of Suppression (%) ([2]; dose rate 3 mg/kg/day oral)
CC(=O)Oc1ccc(C(OC(C)=O)OC(C)=O)cc1OC(C)=O [Present Substance No.1, 3,4-diacetoxybenzylidene diacetate]	> 4000	42.8	55.3	61.4	41.2	48.0	51.9		
COc1ccc2c(c1)c(CC(=O)O)c(C)n2C(=O)c1ccc(Cl)cc1 [Indomethacin, reference compound]					35.7				
O=Cc1ccc(O)c(O)c1 [3,4-dihydroxy-benzaldehyde, 3,4-dihydroxybenzaldehyde, reference compound]				35.6			27.5	1500	
C[C@]12C=CC(=O)C=C1CC[C@@H]1[C@@H]2[C@@H](O)C[C@@]2(C)[C@H]1CC[C@]2(O)C(=O)CO [Prednisolone, reference compound]					37.5				42.2
